# Source: patent US20030232839A1, “Treatment of sleeping disorders using CNS sleep target modulators” (Hypnion, Inc., priority 2002, published 2003)
# Tests used:
# Male Wistar rats = experiment: SCORE-2000 sleep-wake assay (EEG/EMG, locomotor activity, body temperature)
# rat 5-HT2A receptor = rat 5-HT2A receptor (Rattus norvegicus, UniProt P14842); experiment: 5-HT2A binding study, rat receptor; settings: read-out: 5HT-2a Ki, Rat
# human 5-HT2A receptor = human 5-HT2A receptor (Homo sapiens, UniProt P28223); experiment: 5-HT2A binding study, human receptor; settings: read-out: 5HT-2a Ki, Human
# [1] = 3 mg/kg and 10 mg/kg IP at CT-5
# Chain of human 5-HT2A receptor (P28223 whole entry): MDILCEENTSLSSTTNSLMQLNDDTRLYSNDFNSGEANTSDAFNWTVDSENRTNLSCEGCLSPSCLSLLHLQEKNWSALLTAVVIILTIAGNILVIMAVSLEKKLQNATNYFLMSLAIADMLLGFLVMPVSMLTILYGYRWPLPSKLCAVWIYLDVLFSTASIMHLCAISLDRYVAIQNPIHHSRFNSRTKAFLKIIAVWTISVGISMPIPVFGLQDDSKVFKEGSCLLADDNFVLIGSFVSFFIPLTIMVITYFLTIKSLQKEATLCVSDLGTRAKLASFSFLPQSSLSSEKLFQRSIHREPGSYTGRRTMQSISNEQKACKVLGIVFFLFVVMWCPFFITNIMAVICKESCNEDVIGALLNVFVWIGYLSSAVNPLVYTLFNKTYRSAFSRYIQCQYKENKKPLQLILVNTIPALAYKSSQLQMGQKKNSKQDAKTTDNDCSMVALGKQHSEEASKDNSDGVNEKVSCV
# Chain of rat 5-HT2A receptor (P14842 whole entry): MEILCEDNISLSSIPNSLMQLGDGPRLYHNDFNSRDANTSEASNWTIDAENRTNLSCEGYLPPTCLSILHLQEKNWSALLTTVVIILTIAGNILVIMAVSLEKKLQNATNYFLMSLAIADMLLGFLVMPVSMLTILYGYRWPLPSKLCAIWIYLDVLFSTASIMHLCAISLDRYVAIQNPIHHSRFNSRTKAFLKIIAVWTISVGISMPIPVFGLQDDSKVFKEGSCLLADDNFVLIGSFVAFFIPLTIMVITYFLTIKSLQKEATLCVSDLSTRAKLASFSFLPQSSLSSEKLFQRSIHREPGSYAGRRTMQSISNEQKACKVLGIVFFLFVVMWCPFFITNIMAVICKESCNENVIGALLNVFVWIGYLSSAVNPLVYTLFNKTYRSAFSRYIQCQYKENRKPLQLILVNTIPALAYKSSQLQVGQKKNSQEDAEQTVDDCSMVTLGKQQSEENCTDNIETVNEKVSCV
Compound,duration of interference with sleep post-treatment (Male Wistar rats; [1]) [h],duration of reduction in nonREM sleep time post-treatment (Male Wistar rats; [1]) [h],rebound hypersomnolence after sleep interference (Male Wistar rats; [1]),activity on sleep-wakefulness in all measured variables (Male Wistar rats; 30 mg/kg),increasing sleep and sleep consolidation (Male Wistar rats; 30 mg/kg),Ki (rat 5-HT2A receptor) [nM],Ki (human 5-HT2A receptor) [nM]
"Clc1cccc(N2CCNCC2)c1 [m-CPP, meta-chlorophenylpiperazine]",2 to 3,2 to 3,followed by a rebound hypersomnolence,–,–,–,–
Cl.O=C(O)C1CN(CCCn2nc3ccccn3c2=O)CCN1c1cccc(Cl)c1 (stereo not shown) [HY-2724],–,–,–,inactive,ineffective,989,> 10000
